Article PMC11062894, “Protein-based bandpass filters for controlling cellular signaling with chemical inputs” (Nature Chemical Biology, 2023)
Where “and” joins values, the source holds several entries; their conditions need not be identical. Equal entries are not always repeated.

System: GEMS receptors with CBPA11 (BclXL–LD3 and BclXLhigh variants), STAT3-driven SEAP in HEK293T cells
Test: GEMS SEAP reporter assay, CBPA11 (BclXLhigh, LD3-v and BclXL-v variants) with A-1155463
Type: cell-based
Parameters: key to Raw data (SEAP) / SEAP, replicate values / Raw data of Figure 5b / Raw data Figure 5e / Raw data of Independent repeat of CBPA11-v1 vs CBPA11-v1-LD3v3 / Raw data of Independent repeat of CBPA11-v3 vs CBPA11-v3-LD3v3 / Raw data of Figure 5b, CBPA11-v1-LD3v3 (SEAP reporter raw value, single replicate) / Raw data of Figure 5b, CBPA11-v1 (SEAP reporter raw value, single replicate): SEAP activity in U/L in culture supernatant
Excerpt: To rationally design a CBP responding to a chemical input, we used BclXL as the druglow receptor, LD3 as the designed binder and a designed BclXL variant as the drughigh receptor (referred to as BclXLhigh) to construct a CBP responsive to BclXL inhibitors (Fig. 4a). To design BclXLhigh, we used a multistate design computational protocol described elsewhere[26] […] Thus, BclXLhigh-v(1–3) were chosen as the functional drughigh receptors, resulting in three A-1155463-controlled CBPs (referred to as CBPA11-v(1–3)) (Fig. 4c–e).
HEK293T cells were seeded in a 96-well plate 24 h before transfection. The transfection mix in each well consisted of 3 ng of constitutive human CMV promoter driven mammalian STAT3 expression vector (PhCMV-STAT3-pA), 30 ng of STAT3-induced reporter expression (OStat3-PhCMVmin-SEAP-pA) and 50 ng of expression vectors for each GEMS receptor chain (PSV40-IgK-(drughigh receptor)-EpoRm-IL-6RBm-pA and PSV40-IgK-(druglow receptor-GGGGSX3-LD3)-EpoRm-IL-6RBm-pA). For the specific drughigh receptor and druglow receptor used in the different cellular assays, they are indicated as wild type or with mutations. Then, plasmid DNA was mixed with 50 μl opti-MEM (Thermo Fisher) and 600 ng of polyethyleneimine (Polysciences, catalog no. 24765-1). For drug treatment experiments, drugs were added 12 h post-transfection and incubated with cells for 24 h before the SEAP reporter detection assay.
SEAP activity (U l^−1) in cell culture supernatants was quantified by kinetic measurements at 405 nm (1 minute per measurement for 30 cycles) of absorbance increase due to phosphatase-mediated hydrolysis of para-nitrophenyl phosphate (pNPP).
Binding affinities of SPR drug competition assays were calculated using three-parameter nonlinear regression in GraphPad Prism (v.8.3.0). Representative data of cell assays are presented as individual values and mean values (bars). n = 3 refers to biological replicates. All IC50 or EC50 values of cell assays reported were calculated using four-parameter nonlinear regression ± s.d. Bandpass features of cutoff concentrations and Bandwidth90% were estimated based on the curve fitted using bell-shaped curve nonlinear regression in GraphPad Prism (v.8.3.0). […]
Supplementary Figure 4: Design, screening and validation of BclXLhigh variants. a) Screening of BclXLhigh variants in the GEMS platform. […]
Dissociation constant measurement of BclXLhigh-v(1-3) and LD3. Equilibrium curves are fitted using […]
BclXLhigh-v1 (purple), BclXLhigh-v2 (blue), […]
a) Bcl2high-based bandpass filter designs were developed and to respond to different concentrations of […]
corresponding inhibitor. c) Screening of Bcl2high-based bandpass filter variants in the GEMS platform.
The designed binder LD3 was fused to the druglow-receptor (PSV40-IgK-Bcl2-LD3-EpoRm-IL-6RBm-pA) in one EpoR chain and Bcl2high variants with the insensitive Bcl2 (iBcl2) as control in the other EpoR chain (PSV40-IgK-Bcl2high-EpoRm-IL-6RBm-pA). HEK293T cells were transfected with indicated […]
the mean of six biological replicates ± s.d., overlaid with a scatter dot plot of the original data points.
(1 picture or pasted object on this page, not shown here)
Supplementary Figure 6: Binding affinities and drug resistances of Bcl2high-v(2,4,5) assessed by […]
a) Measurement of dissociation constants for Bcl2high-v(2,4,5) and LD3 interactions. Equilibrium curves […]
Bcl2high-v(2,4,5) measured by SPR. 5 μM of Bcl2 or indicated variants were mixed with 10 μM of […]
Bcl2high-v2 (red), Bcl2high-v4
Supplementary Figure 7: Screening of LD3 variants in CBPA11-v(1-3) and raw data of CBPA11-v(1,3) with LD3-v3 variant. a-c) Screening of LD3 and LD3-v(1-3) variants in complex with BclXL for more sensitive CBPA11-v1 (a), CBPA11-v2 (b), CBPA11-v3 (c) in the GEMS platform. The LD3 variants replaced the role of LD3 (PSV40-IgK-BclXL-LD3-v(1-3)-EpoRm-IL-6RBm-pA) in one EpoR chain and BclXLhigh-v(1-3) in the other EpoR chain (PSV40-IgK-BclXLhigh-V(1-3)-EpoRm-IL-6RBm-pA). HEK293T cells were transfected with […]

CN(C)CC#Cc1ccc(OCCCc2sc(N3CCc4cccc(C(=O)Nc5nc6ccccc6s5)c4C3)nc2C(=O)O)c(F)c1 [A-1155463]
Raw data of Figure 5b, CBPA11-v1-LD3v3 (SEAP reporter raw value, single replicate) (A-1155463 10000 nM, construct CBPA11-v1-LD3v3, three replicate columns): 23.9254 and 24.8005 and 21.4423
Raw data of Figure 5b, CBPA11-v1 (SEAP reporter raw value, single replicate) (A-1155463 10000 nM, construct CBPA11-v1, three replicate columns): 69.4522 and 75.5808 and 84.1281
Raw data of Independent repeat of CBPA11-v1 vs CBPA11-v1-LD3v3 (CBPA11-v1, A-1155463 0.01 nM): 21.5154 and 21.2395 and 24.0629
Normalized data Figure 5e (CBPA11-v1, A-1155463 1 nM): 6.4824 and 7.053 and 8.837
Normalized data of Figure 5b (CBPA11-v1, A-1155463 1 nM): 1.402 and 1.595 and 1.731
Raw data of Figure 5b (CBPA11-v1, A-1155463 1 nM): 11.9307 and 13.3631 and 14.4518
Raw data of Independent repeat of CBPA11-v1 vs CBPA11-v1-LD3v3 (CBPA11-v1, A-1155463 1 nM): 71.2806 and 66.4229 and 63.7452
Raw data of Independent repeat of CBPA11-v1 vs CBPA11-v1-LD3v3 (CBPA11-v1, A-1155463 3.16 nM): 80.0965 and 82.8427 and 80.4448
Normalized data Figure 5e (CBPA11-v1, A-1155463 3.18 nM): 7.202 and 10.0096 and 11.7189
Normalized data Figure 5e (CBPA11-v1, A-1155463 10 nM): 46.8388 and 51.1661 and 51.2149
Normalized data of Figure 5b (CBPA11-v1, A-1155463 10 nM): 14.5535 and 13.2638 and 13.0086
Raw data of Figure 5b (CBPA11-v1, A-1155463 10 nM): 123.839 and 111.135 and 108.599
Raw data of Independent repeat of CBPA11-v1 vs CBPA11-v1-LD3v3 (CBPA11-v1, A-1155463 10 nM): 462.474 and 463.658 and 418.386
Raw data of Independent repeat of CBPA11-v1 vs CBPA11-v1-LD3v3 (CBPA11-v1, A-1155463 31.6 nM): 571.289 and 570.216 and 457.441
Normalized data Figure 5e (CBPA11-v1, A-1155463 31.8 nM): 63.7218 and 71.158 and 71.088
Normalized data of Figure 5b (CBPA11-v1, A-1155463 31.8 nM): 45.8074 and 33.2331 and 44.7698
Raw data of Figure 5b (CBPA11-v1, A-1155463 31.8 nM): 389.784 and 278.454 and 373.749
Normalized data Figure 5e (CBPA11-v1, A-1155463 100 nM): 98.9083 and 100
Normalized data of Figure 5b (CBPA11-v1, A-1155463 100 nM): 66.3164 and 72.6195 and 72.7718
Raw data of Figure 5b (CBPA11-v1, A-1155463 100 nM): 564.299 and 608.466 and 607.516
Raw data of Independent repeat of CBPA11-v1 vs CBPA11-v1-LD3v3 (CBPA11-v1, A-1155463 100 nM): 770.33 and 757.162 and 752.74
Raw data of Independent repeat of CBPA11-v1 vs CBPA11-v1-LD3v3 (CBPA11-v1, A-1155463 316 nM): 692.583 and 694.97 and 762.999
Normalized data Figure 5e (CBPA11-v1, A-1155463 318 nM): 100 and 89.6838 and 88.8002
Normalized data of Figure 5b (CBPA11-v1, A-1155463 318 nM): 100
Raw data of Figure 5b (CBPA11-v1, A-1155463 318 nM): 850.92 and 837.883 and 834.824
Normalized data Figure 5e (CBPA11-v1, A-1155463 1000 nM): 87.8736 and 79.7319 and 71.766
Normalized data of Figure 5b (CBPA11-v1, A-1155463 1000 nM): 69.8009 and 76.8483 and 84.4115
Raw data of Figure 5b (CBPA11-v1, A-1155463 1000 nM): 593.95 and 643.898 and 704.687
Raw data of Independent repeat of CBPA11-v1 vs CBPA11-v1-LD3v3 (CBPA11-v1, A-1155463 1000 nM): 543.865 and 540.678 and 577.914
Raw data of Independent repeat of CBPA11-v1 vs CBPA11-v1-LD3v3 (CBPA11-v1, A-1155463 3160 nM): 413.782 and 413.648 and 344.2
Normalized data Figure 5e (CBPA11-v1, A-1155463 3180 nM): 51.7606 and 52.3661 and 51.7462
Normalized data of Figure 5b (CBPA11-v1, A-1155463 3180 nM): 53.3499 and 60.9077 and 57.5176
Raw data of Figure 5b (CBPA11-v1, A-1155463 3180 nM): 453.965 and 510.335 and 480.171
Normalized data Figure 5e (CBPA11-v1, A-1155463 10000 nM): 19.9955 and 19.9571 and 22.5422
Normalized data of Figure 5b (CBPA11-v1, A-1155463 10000 nM): 33.8321 and 33.8547 and 35.5742
Raw data of Figure 5b (CBPA11-v1, A-1155463 10000 nM): 287.884 and 283.663 and 296.982
Raw data of Independent repeat of CBPA11-v1 vs CBPA11-v1-LD3v3 (CBPA11-v1, A-1155463 10000 nM): 129.42 and 154.739 and 117.07
Normalized data Figure 5e (CBPA11-v1-BclXLv2, A-1155463 1 nM): 21.782 and 18.7434 and 19.0174
Normalized data Figure 5e (CBPA11-v1-BclXLv2, A-1155463 3.18 nM): 30.7821 and 38.1789 and 36.4445
Normalized data Figure 5e (CBPA11-v1-BclXLv2, A-1155463 10 nM): 85.4791 and 79.6848 and 85.0591
Normalized data Figure 5e (CBPA11-v1-BclXLv2, A-1155463 31.8 nM): 84.8971 and 95.7911 and 86.6879
Normalized data Figure 5e (CBPA11-v1-BclXLv2, A-1155463 100 nM): 100 and 90.6768
Normalized data Figure 5e (CBPA11-v1-BclXLv2, A-1155463 318 nM): 91.2979 and 98.815 and 100
Normalized data Figure 5e (CBPA11-v1-BclXLv2, A-1155463 1000 nM): 86.9949 and 91.0394 and 83.6084
Normalized data Figure 5e (CBPA11-v1-BclXLv2, A-1155463 3180 nM): 69.3324 and 72.9533 and 70.3736
Normalized data Figure 5e (CBPA11-v1-BclXLv2, A-1155463 10000 nM): 38.0946 and 36.2941 and 35.5843
Raw data of Independent repeat of CBPA11-v1 vs CBPA11-v1-LD3v3 (CBPA11-v1-LD3v3, A-1155463 0.01 nM): 17.2788 and 15.3201 and 15.4842
